# Measured values reported in the supplement of paper PMC11061612.
# Experiments:
# [1] = tested on: PFSK-1 (Other Solid Carcinomas); assay: Bliss excess, mean over the matrix (fraction); higher = more synergy
# Outline: (§1)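 Cell lines in DMEM/F12 or RPMI with 10% FBS were plated in 1536-well plates, held 24 hours at 37°C, 5% CO2, then given two-drug dose matrices for 72 hours (DMSO typically 0.2%). Viability was read by CellTiter-Glo 2.0 luminescence and scaled as inhibition from 0 (vehicle wells) to 1 (blank wells). Combination Emax is the second-highest inhibition in the matrix; Bliss excess is observed combination effect minus expected EA + EB − EA·EB, EA and EB being single-agent effects.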
# [2] = tested on: VMRC-LCD (Lung Adenocarcinoma); assay: as above
# Outline: as §1
# GOTO (Neuroblastoma) [3] = assay: as above
# Outline: as §1
# [4] = tested on: EMC-BAC-2 (Non-Small Cell Lung Carcinoma); assay: as above
# Outline: as §1
# [5] = tested on: KYSE-50 (Esophageal Squamous Cell Carcinoma); assay: as above
# Outline: as §1
# NB7 (Neuroblastoma) [6] = assay: as above
# Outline: as §1
# A704 (Kidney Carcinoma) = assay: as above
# Outline: as §1
# [7] = tested on: VMRC-LCD (Lung Adenocarcinoma); assay: combination Emax (second highest fraction inhibited in the dose matrix, 72 h); higher = more inhibition; extreme values may be limits of the assay
# Outline: as §1
# [8] = tested on: OCUM-1 (Gastric Carcinoma); assay: as above
# Outline: as §1
# [9] = tested on: DG-75 (Burkitt's Lymphoma); assay: as above
# Outline: as §1
# EW-13 (Ewing's Sarcoma) = assay: as above
# Outline: as §1
# GOTO (Neuroblastoma) [10] = assay: as above
# Outline: as §1
# [11] = tested on: TGBC11TKB (Gastric Carcinoma); assay: as above
# Outline: as §1
# [12] = tested on: HuP-T3 (Pancreatic Carcinoma); assay: as above
# Outline: as §1
# [13] = tested on: KYSE-50 (Esophageal Squamous Cell Carcinoma); assay: as above
# Outline: as §1
# [14] = tested on: NCI-H513 (Other Solid Carcinomas); assay: as above
# Outline: as §1
# NB7 (Neuroblastoma) [15] = assay: as above
# Outline: as §1
# [16] = tested on: MFE-319 (Endometrial Carcinoma); assay: as above
# Outline: as §1
# [17] = tested on: NCI-H2405 (Lung Adenocarcinoma); assay: as above
# Outline: as §1
# IMR-5 (Neuroblastoma) = assay: as above
# Outline: as §1
# 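For Bliss excess, mean over the matrix in this document: after 72 h of two-drug dosing.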
Structure (SMILES),Bliss excess [1],Bliss excess [2],Bliss excess (GOTO (Neuroblastoma) [3]),Bliss excess [4],Bliss excess [5],Bliss excess (NB7 (Neuroblastoma) [6]),Bliss excess (A704 (Kidney Carcinoma)),combination Emax [7],combination Emax [8],combination Emax [9],combination Emax (EW-13 (Ewing's Sarcoma)),combination Emax (GOTO (Neuroblastoma) [10]),combination Emax [11],combination Emax [12],combination Emax [13],combination Emax [14],combination Emax (NB7 (Neuroblastoma) [15]),combination Emax [16],combination Emax [17],combination Emax (IMR-5 (Neuroblastoma))
"CC1(C)CCC(CN2CCN(c3ccc(C(=O)NS(=O)(=O)c4ccc(NCC5CCOCC5)c([N+](=O)[O-])c4)c(Oc4cnc5[nH]ccc5c4)c3)CC2)=C(c2ccc(Cl)cc2)C1 [Venetoclax] + CN(C)CCCOc1ccc(-c2ccc3ncc4c(c3c2)n(C2CCOCC2)c(=O)n4C)cn1 [AZD0156] (first compound max 1 µM, 7x7, partner max 1 µM)",0.068,-0.0333,-0.0194,-0.0593,-0.0399,0.0104,-0.0717,0.153,0.284,0.125,0.062,0.455,0.235,0.145,0.164,0.21,0.18,0.243,0.14,0.0957
"Cc1c2c(nn1C)CSCc1cc(n(C)n1)CSc1cc(c3ccccc3c1)OCCCc1c(C(=O)O)n(C)c3c-2c(Cl)ccc13 [AZD5991] + C[C@@H](Nc1cc(F)cc(F)c1)c1cc(C(=O)N(C)C)cc2c(=O)cc(N3CCOCC3)oc12 [AZD8186] (first compound max 1 µM, 7x7, partner max 3 µM)",0.0429,-0.024,-0.0589,-0.0336,0.0319,0.0187,-0.0291,0.196,0.137,0.219,0.454,0.654,0.548,0.288,0.317,0.339,0.686,0.401,0.165,0.955
"Cc1c2c(nn1C)CSCc1cc(n(C)n1)CSc1cc(c3ccccc3c1)OCCCc1c(C(=O)O)n(C)c3c-2c(Cl)ccc13 [AZD5991] + CC1(C)CCC(CN2CCN(c3ccc(C(=O)NS(=O)(=O)c4ccc(NCC5CCOCC5)c([N+](=O)[O-])c4)c(Oc4cnc5[nH]ccc5c4)c3)CC2)=C(c2ccc(Cl)cc2)C1 [Venetoclax] (first compound max 1 µM, 7x7, partner max 1 µM)",0.0721,-0.0217,0.0588,-0.0512,-0.0575,-0.0612,-0.0306,0.164,0.0835,0.144,0.675,0.795,0.792,0.128,0.418,0.156,0.513,0.881,0.175,0.995
"NC1(C(=O)N[C@@H](CCO)c2ccc(Cl)cc2)CCN(c2ncnc3[nH]ccc23)CC1 [Capivasertib] + Cn1cnc2c(F)c(Nc3ccc(Br)cc3Cl)c(C(=O)NOCCO)cc21 [Selumetinib] (first compound max 10 µM, 7x7, partner max 10 µM)",0.0717,0.0047,0.0355,-0.0445,-0.036,-0.0045,-0.0098,0.248,0.937,0.398,0.249,0.469,0.462,0.464,0.298,0.409,0.28,0.644,0.573,0.168
"C[C@@H](c1ccc2nccn2c1)n1nnc2ncc(-c3cnn(C)c3)nc21 [Savolitinib] + CC1(C)CCC(CN2CCN(c3ccc(C(=O)NS(=O)(=O)c4ccc(NCC5CCOCC5)c([N+](=O)[O-])c4)c(Oc4cnc5[nH]ccc5c4)c3)CC2)=C(c2ccc(Cl)cc2)C1 [Venetoclax] (first compound max 1 µM, 7x7, partner max 1 µM)",-0.0025,-0.0153,-0.0228,-0.0816,-0.0636,-0.0221,-0.0516,0.128,0.187,0.16,0.128,0.266,0.0823,0.0903,0.196,0.0676,0.108,0,0.038,0.173
"CN(CCO)CC[C@H](CSc1ccccc1)Nc1ccc(S(=O)(=O)NC(=O)c2ccc(N3CCC([C@@H](O)c4ccccc4-c4ccc(Cl)cc4)CC3)cc2)cc1S(=O)(=O)C(F)(F)F [AZD4320] + C[C@@H]1COCCN1C2=NC(=NC(=C2)C3(CC3)[S@](=N)(=O)C)C4=C5C=CNC5=NC=C4 [AZD6738] (first compound max 1 µM, 7x7, partner max 10 µM)",0.0409,-0.0764,-0.0126,-0.0695,-0.0537,-0.0181,-0.0084,0.611,0.914,0.768,0.887,0.909,0.935,0.706,0.686,0.452,0.691,0.928,0.415,1
"CN(CCO)CC[C@H](CSc1ccccc1)Nc1ccc(S(=O)(=O)NC(=O)c2ccc(N3CCC([C@@H](O)c4ccccc4-c4ccc(Cl)cc4)CC3)cc2)cc1S(=O)(=O)C(F)(F)F [AZD4320] + Cc1cc2ncnn2cc1Nc1ncc2c(n1)n(C1CCOCC1)c(=O)n2C [AZD7648] (first compound max 1 µM, 7x7, partner max 10 µM)",0.0756,-0.0595,0.075,-0.0482,-0.0198,-0.0286,-0.0394,0.0704,0.744,0.472,0.672,0.633,0.237,0.153,0.096,0.269,0.0542,0.264,0.186,0.738
"CN(CCO)CC[C@H](CSc1ccccc1)Nc1ccc(S(=O)(=O)NC(=O)c2ccc(N3CCC([C@@H](O)c4ccccc4-c4ccc(Cl)cc4)CC3)cc2)cc1S(=O)(=O)C(F)(F)F [AZD4320] + C1CN(CCC1(C(=O)N[C@@H](CCO)C2=CC=C(C=C2)Cl)N)C3=NC=NC4=C3C=CN4 [Capivasertib] (first compound max 1 µM, 7x7, partner max 3 µM)",0.078,-0.0521,-0.034,-0.0761,-0.0344,-0.0403,-0.1,0.0578,0.861,0.266,0.677,0.378,0.182,0.118,0.0686,0.122,0.0214,–,0.224,0.788
"C[C@@H](c1ccc2nccn2c1)n1nnc2ncc(-c3cnn(C)c3)nc21 [Savolitinib] + CN(CC[C@H](CSC1=CC=CC=C1)NC2=C(C=C(C=C2)S(=O)(=O)NC(=O)C3=CC=C(C=C3)N4CCC(CC4)[C@H](C5=CC=CC=C5C6=CC=C(C=C6)Cl)O)S(=O)(=O)C(F)(F)F)CCO [AZD4320] (first compound max 1 µM, 7x7, partner max 1 µM)",0.0076,–,0.0166,-0.0794,-0.011,–,-0.0766,–,–,0.057,0.639,0.495,–,0.203,0.188,0.113,–,0.191,0.271,0.481
"COc1nnc2ccc(N3CCC(c4ccc(OCCN5CCN(C)C(=O)[C@H]5C)cc4)CC3)nn12 [AZD5153] + CN(CC[C@H](CSC1=CC=CC=C1)NC2=C(C=C(C=C2)S(=O)(=O)NC(=O)C3=CC=C(C=C3)N4CCC(CC4)[C@H](C5=CC=CC=C5C6=CC=C(C=C6)Cl)O)S(=O)(=O)C(F)(F)F)CCO [AZD4320] (first compound max 1 µM, 7x7, partner max 1 µM)",0.0145,–,0.065,0.0491,0.0999,–,0.0754,–,–,0.881,0.818,0.858,–,0.512,0.732,0.409,–,0.476,0.443,0.984
"CC(=O)c1c(C)c2cnc(Nc3ccc(N4CCNCC4)cn3)nc2n(C2CCCC2)c1=O [Palbociclib] + CN(CC[C@H](CSC1=CC=CC=C1)NC2=C(C=C(C=C2)S(=O)(=O)NC(=O)C3=CC=C(C=C3)N4CCC(CC4)[C@H](C5=CC=CC=C5C6=CC=C(C=C6)Cl)O)S(=O)(=O)C(F)(F)F)CCO [AZD4320] (first compound max 10 µM, 7x7, partner max 1 µM)",0.016,–,0.0226,-0.193,-0.0228,–,-0.0376,–,–,0.735,0.649,0.846,–,0.274,0.37,0.205,–,0.31,0.351,0.949
"Cc1c2c(nn1C)CSCc1cc(n(C)n1)CSc1cc(c3ccccc3c1)OCCCc1c(C(=O)O)n(C)c3c-2c(Cl)ccc13 [AZD5991] + C1CN(CCC1(C(=O)N[C@@H](CCO)C2=CC=C(C=C2)Cl)N)C3=NC=NC4=C3C=CN4 [Capivasertib] (first compound max 1 µM, 7x7, partner max 3 µM)",0.0384,-0.0416,0.0118,0.0302,-0.0036,-0.0133,-0.065,0.129,0.219,0.257,0.432,0.725,0.472,0.228,0.226,–,0.609,0.776,0.203,1
